These results are taken from patent WO2005094256A2, “Polypeptides toxic to nematodes, and methods of use” (Individual, priority 2004, dated 2005).

Where a name gives a salt, the structure may show the parent alone. *1 amine or outer side, *2 acyl side, *3 side chain or, on linkers, in order; H or OH if unused. Where a SMILES comes first, the peptide text is derived from it. [ ]: non-standard residue; d: D form. The star is where a group is joined. Sta = CC(C)C[C@H](N)[C@@H](O)CC(=O)O; Isovaleryl = CC(C)CC(=O)*; CO = O=C([*:1])[*:2]

The subject of the assay is serratia metalloprotease SMP #1 from Serratia marcescens NRRL B-23112, SEQ ID NO:2. Put plainly: Inhibition of protease activity of SMP #1: residual proteolytic (casein digestion) activity after addition of inhibitor, 25°C, 30 minutes. The format is biochemical.

For the compound `CC(C)C[C@H](NC(=O)[C@H]1O[C@@H]1C(=O)O)C(=O)NCCCCNC(=N)N` [E-64], for the setting “20μg/ml”, the “inhibition of SMP #1” value is reported as “not inhibited”.
In the case of `Cl.NCCc1ccc(S(=O)(=O)F)cc1` [Pefabloc SC], for the setting “2000μg/ml”, the “inhibition of SMP #1” value is on record as “not inhibited”.
With `CC(=O)N[C@@H](CC(C)C)C(=O)N[C@@H](CC(C)C)C(=O)N[C@H](C=O)CCCNC(=N)N` [leupeptin], the “inhibition of SMP #1” value (4μg/ml) is given as “not inhibited”.
Take `CC(C)C[C@H](NC(=O)[C@@H](O)[C@H](N)Cc1ccccc1)C(=O)O` [bestatin]: the “inhibition of SMP #1” value (80μg/ml) was “not inhibited”.
Turning to `CC(C)CC(=O)N[C@H](C(=O)N[C@H](C(=O)N[C@@H](CC(C)C)[C@@H](O)CC(=O)N[C@@H](C)C(=O)N[C@@H](CC(C)C)[C@@H](O)CC(=O)O)C(C)C)C(C)C` [pepstatin] (Isovaleryl-VV[Sta]A[Sta]-OH), the “inhibition of SMP #1” value (4μg/ml) is listed as “not inhibited”.
For the compound `O=S(=O)(F)Cc1ccccc1` [phenylmethylsulfonyl fluoride], the “inhibition of SMP #1” value (400μg/ml) is “not inhibited”.
On to `OCCS` [2-mercaptoethanol], for which the “activity of SMP #1 retained in the presence of 2-mercaptoethanol” value (0.5% v/v) is “retains full activity”.
For `CC(C)C[C@H](NC(=O)[C@@H](NC(=O)N[C@@H](Cc1ccccc1)C(=O)O)[C@@H]1CCN=C(N)N1)C(=O)N[C@H](C=O)Cc1ccccc1` [chymostatin], the “inhibition of SMP #1” value (50μg/ml) is “not inhibited”.
As to `CC(C)C[C@H](NP(=O)(O)O[C@@H]1O[C@@H](C)[C@H](O)[C@@H](O)[C@H]1O)C(=O)N[C@@H](Cc1c[nH]c2ccccc12)C(=O)O` [phosphoramidon], the “inhibition of SMP #1” value (660μg/ml) is “not inhibited”.
`CC(C)[C@H](NC(=O)[C@H](CCCNC(=N)N)NC(=O)N[C@@H](Cc1ccccc1)C(=O)O)C(=O)N[C@H](C=O)CCCNC(=N)N` [antipain dihydrochloride] ({Phe-CO}-Arg-Val-Arg-aldehyde): where the note is “120μg/ml”, the “inhibition of SMP #1” value is recorded as “not inhibited”.
For `O=C(O)CN(CCN(CC(=O)O)CC(=O)O)CC(=O)O` [EDTA], the “inhibition of SMP #1” value (9μg/ml) is listed as “inhibited”.
